The subject of test [1] is Cyclophosphamide-induced primary ovarian insufficiency in Sprague Dawley rats. Description: Cyclophosphamide-induced primary ovarian insufficiency in female Sprague Dawley rats, total follicular count. Particulars: rat, in vivo. As to the method:
Evaluation of Asparagus racemosus enriched extract compositions supplementation on total follicular count of female Sprague Dawley rats: Ovarian follicles contain oocytes and surrounded by granulosa cells. Four different types of follicles are observed in ovaries based on their development stages: primordial, primary, secondary, and tertiary (antral). The number of primordial follicles, which is the true ovarian reserve, is determined in the fetus and declines throughout life. However, the primordial follicles cannot be visualized by ultrasound due to their small size (<0.05 mm diameter). The antral or Graafian follicles are more easily identifiable by ultrasound when they reach 2 mm in diameter. It is recommended that a follicular count needs to be performed in the early follicular phase of the menstrual cycle. However, considering the intracycle fluctuation of ovarian reserve, a follicular count may be performed at any point in the menstrual cycle. […]
Example 28: In-vivo efficacy of AR-1 and Comp-1 in mitigating Cyclophosphamide-induced primary ovarian insufficiency in Sprague Dawley rats. […] Twenty randomly selected fields were analysed for primordial, primary, antral, […], and atretic follicles, and the average of total number of follicles present in each tissue section was calculated.

For test [2], the system named is Letrozole-induced PCOS in female Sprague Dawley rats. Briefly: Oral glucose tolerance test (OGTT) in letrozole-induced PCOS rats. Format: in vivo. The settings on record: mean ± SD, n = 7, 20 mg/kg daily days 22-48 after letrozole induction, letrozole group 1 mg/kg without test item, day 49. From the text:
Evaluation of Asparagus racemosus synergistic enriched extract compositions (comp-26, comp-27, comp-28 and 90% aqueous ethanol extract (AR-2) supplementation in letrozole-induced PCOS in female Sprague Dawley rats: Oral glucose tolerance test (OGTT): OGTT measures circulatory glucose levels following glucose ingestion, and this test is widely used as an indicator of insulin resistance. PCOS is known to cause metabolic dysfunctions, including insulin resistance. Letrozole-induced rats show impaired glucose tolerance and increased blood glucose in circulation, which closely mimics the clinical features of glucose intolerance or insulin resistance in PCOS.
Area Under the Curve (AUC) was calculated using serum glucose concentration Vs. time (in min). The AUC value was increased in letrozole-induced (G2) rats when compared with the Vehicle control (G1) rats, indicating impaired glucose tolerance or increased insulin resistance.
(§1) Following a 7-day acclimatization period, female Sprague Dawley rats (age: 10-12 weeks, body weight 250-300 g) were randomly assigned to six groups (n=7): vehicle control (G1), Letrozole (G2; 1 mg/kg), AR-2 (G3; 20 mg/kg), Comp-26 (G4; 20 mg/kg), Comp-27 (G5; 20 mg/kg), and Comp-28 (G6; 20 mg/kg).
The study was performed in two phases i.e., the induction and supplementation phases. […]

Test [3] has the same test system. Description: Serum 17β-estradiol in letrozole-induced PCOS rats. Format: in vivo. Particulars: mean ± SD, n = 7; 20 mg/kg daily after letrozole induction; letrozole group 1 mg/kg; day 48. As to the method:
as §1
(§2) The study was performed in two phases i.e., the induction and supplementation phases. In the induction phase, all the animals, except for G1, were gavaged with letrozole to induce PCOS for 21 days. In the supplementation phase (from days 22 to 48), all rats were supplemented once daily with either the vehicle or one of the test items. An oral glucose tolerance test (OGTT) was performed on day 49 in overnight fasted rats. Blood samples were collected on day 48. The serum was separated by centrifuging the blood samples at 3200×g for 15 minutes at 4 °C and stored at −80 °C in aliquots for biomarker analysis. On day 50, all rats were euthanized using CO2 asphyxiation, and their ovaries were collected. The ovaries were fixed in 10% normal buffered formalin for histopathology examination. The fixed tissues were paraffin-embedded, sectioned (5-7 μm) using a microtome, and stained with hematoxylin-eosin following the standard protocols. The stained tissue sections were examined at 10× magnification under a light microscope (Carl Zeiss, Germany).

Test [4] has the same test system. Briefly: Serum testosterone in letrozole-induced PCOS rats. Format: in vivo. Particulars: mean ± SD, n = 7; 20 mg/kg daily after letrozole induction; letrozole group 1 mg/kg; day 48. The protocol:
as §1, §2

For test [5], the system named is estrogen receptor alpha phosphorylated at Serine 118 position (pER-α). Description: Evaluation of estrogen-receptor alpha (ER-α) phosphorylation by Western blot assay (normalized pER-α expression) in MCF-7 cells. Format: cell-based, Human. The settings on record: 0.2 μg/mL, MCF-7, 4 h; for pER-α expression (normalized): Table 3 (vehicle control 0.28); for activation at 0.2 µg/mL: Homo sapiens, MCF7, read-out: % increase of pER-α (from vehicle control). As to the method:
The four compounds of Asparagus racemosus root Shatavarin I, dehydroshatavarin I, shatavarin IV, and shatavarin IX, and their combinations were evaluated for their ability to enhance the pER-α (estrogen receptor alpha phosphorylated at Serine 118 position) expression in a human breast tumor cell line, MCF-7, and the results are presented in Table 3. pER-α represents the active form of the hormone receptor.
Human MCF-7 cells (ATCC Cat #HTB-22; 5×10^5 cells/well in 3 mL) were seeded in 6-well cell culture plates and maintained in DMEM medium containing 10% FBS at 37 °C in a humidified atmosphere of 5% CO2. After 48 hours of seeding, cells were washed twice with serum-free DMEM medium (without phenol red) and maintained in the same media for another 24 hours. Cells were treated with different test samples (0.2 μg/mL) in serum-free DMEM medium and incubated for 4 hours at 37 °C in a CO2 incubator. The untreated cells served as a vehicle control.
Western blot: After the incubation, cell culture plates were placed on an ice tray and washed twice with cold 1×PBS. Eighty microliters of lysis buffer (10 mM Tris-HCl pH 7.4, 150 mM NaCl, 1 mM EDTA, 1 mM [COMPOUND LEFT OUT], 10 μg/mL Aprotinin, 10 μg/mL Leupeptin, 1% Triton X-100, 1 mM NaF, 1 mM Na3VO4, 0.5% Sodium deoxycholate, and 1 μM Pepstatin) was added to each well and sonicated for 30 seconds. Following homogenization, samples were centrifuged at 16128×g for 10 minutes at 4 °C to sediment unbroken cells and nuclei. Supernatant was collected, and protein was quantified using a Pierce BCA protein assay kit (Thermo Scientific Cat #23225). SDS-PAGE was performed for the protein samples, and resolved proteins were transferred onto nitrocellulose membrane using the wet blotting method. Briefly, 10 μg of protein was loaded onto acrylamide gel (7.5% resolving) and ran at 100V for approximately 1 hour 40 minutes. At the end of the run, proteins were transferred to the nitrocellulose membrane by placing transfer system at 4 °C chamber (100V for 2 hours). After the transfer, the membrane was washed in 0.1M Tris-buffered saline containing 0.05% Tween20 (TBST) and blocked in Superblock blocking buffer (Thermo Scientific Cat #37535) with constant agitation for 30 minutes. The membrane was incubated with primary antibodies recognizing phospho-ER-α (Phosphorylation site: Ser118) in TBST for 16 hours at 4 °C with agitation. The membrane was washed three times and incubated with peroxidase affiniPure goat anti-rabbit secondary antibody (Jackson ImmunoResearch Cat #111-035-045; 1:10000 dilution) for 1 hour at room temperature with agitation, followed by three times of washing in TBST for 5 minutes each. Immunoreactive bands were detected using a chemiluminescent substrate (Thermo Scientific Cat #34080) and images were captured using Bio-Rad Molecular imager (Model: ChemiDOC MP). Membrane was stripped of the phospho-ER-α antibody and re-probed with […] antibody (Sigma Chemical Co., USA; 1:10000 dilution) by incubating at room temperature for 2 hours and images were captured. The intensities of phospho-ER-α and actin protein bands were calculated using Carestream MI software and normalized. The normalized pER-α expression (in arbitrary units) was measured using the following formula: […]
For orientation: A western blot detects proteins with antibodies after separation by electrophoresis.

As for `O=P1(N(CCCl)CCCl)NCCCO1` (stereo not shown) [Cyclophosphamide], the “Average total follicular count” value in test [1] was found to be 5.63 per section.

For the compound `N#Cc1ccc(C(c2ccc(C#N)cc2)n2cncn2)cc1` [Letrozole], the results for the “AUC (serum glucose, OGTT)” value in test [2] and in test [2] (listed as letrozole) were 21030 ± 4007 mg/dL/min and “increased”, respectively. For the same compound, the “17β-Estradiol concentration (serum)” value in test [3] is listed as 32.97 ± 13.89 pg/mL. In test [4], the “Testosterone concentration (serum)” value worked out at 3.18 ± 1.16 pg/mL.

`CC1CCC2(OC1)OC1CC3C4CCC5CC(OC6OC(CO)C(OC7OC(C)C(O)C(O)C7O)C(O)C6OC6OC(CO)C(O)C(O)C6O)CCC5(C)C4CCC3(C)C1C2C` (stereo not shown) [Shatavarin IV]: the “pER-α expression (normalized)” value in test [5] is 0.40 arbitrary units. In addition, the activation at 0.2 µg/mL in test [5] (markers, Table 3) turned out to be 42.9%.

Regarding `CC1CCC2(OC1)OC1CC3C4CCC5CC(OC6OC(CO)C(OC7OC(CO)C(O)C(O)C7O)C(O)C6OC6OC(CO)C(O)C(O)C6O)CCC5(C)C4CCC3(C)C1C2C` (stereo not shown) [Shatavarin IX], the “pER-α expression (normalized)” value in test [5] is 0.38 arbitrary units. In addition, in test [5] (markers, Table 3), the activation at 0.2 µg/mL worked out at 35.7%.

For `CC(CCC1(O)OC2CC3C4CCC5CC(OC6OC(CO)C(OC7OC(C)C(O)C(O)C7O)C(O)C6OC6OC(CO)C(O)C(O)C6O)CCC5(C)C4CCC3(C)C2C1C)COC1OC(CO)C(O)C(O)C1O` (stereo not shown) [Shatavarin I], the “pER-α expression (normalized)” value in test [5] is 0.34 arbitrary units. For the same compound, the activation at 0.2 µg/mL in test [5] (markers, Table 3) was determined as 21.4%.

For dehydroshatavarin I, the “pER-α expression (normalized)” value in test [5] is recorded as 0.45 arbitrary units. For the same compound, the “% increase of pER-α (from vehicle control)” value in test [5] (markers, Table 3) was found to be 60.71%.

Source of the values: patent US20260364138A1, “ENRICHED ASPARAGUS RACEMOSUS ROOT COMPOSITION AND PROCESS FOR PREPARATION THEREOF” (LAILA NUTRA PRIVATE LIMITED, priority 2023, published 2026).
